Measured values reported in patent US20040033524A1, “Beta-adrenoceptor genetic polymorphisms and obesity” (priority 2001, published 2004).

Tested on: individuals with hypertension
Experiment: Blood pressure and heart rate response to metoprolol by β1AR codon 389 / codon 49 genotype
Type: in vivo, human
Settings: for 24 hr SBP response (% change) / 24 hr DBP response (% change) / Daytime DBP response (% change) / Daytime SBP response (% change) / Nighttime DBP response (% change) / Nighttime SBP response (% change): at least 4 weeks
Method: Genetic variation (polymorphisms) in the gene encoding the beta 1-adrenergic receptor (β1AR) contribute to the variability in response to beta-blockers. There are two common, non-synonymous polymorphisms of the P AR gene and they result in either a serine (Ser) or glycine (Gly) at codon 49, and arginine (Arg) or glycine (Gly) at codon 389. The relationship between these polymorphisms and heart rate and blood pressure response to the beta-blocker metoprolol was tested in 28 individuals with hypertension.
Patients were washed out from all their antihypertensive medications for at least 2 weeks. They then underwent baseline testing which included recording of 24-hour ambulatory blood pressure data and treadmill exercise heart rate responses at 10 AM and 2 PM. Patients were started on metoprolol and titrated to a dose that produced a diastolic blood pressure DBP<90 mm Hg, or until they reached the maximum dose (200 mg twice daily). Patients were maintained on this target dose for at least 4 weeks and then underwent repeat studies, as at baseline.
Patients were also divided as responders or non-responders, with non-responders defined as those with a <10% decline in DBP, and compared allele frequencies in these groups.

[1] = Arg389Arg genotype, metoprolol titrated
[2] = Ser49Ser genotype, metoprolol titrated
[3] = codon 49 Gly carriers, metoprolol titrated
[4] = codon 389 Gly carriers, metoprolol titrated

SMILES: COCCc1ccc(OCC(O)CNC(C)C)cc1 (stereo not drawn) [metoprolol]
- 24 hr SBP response (% change) (Arg389Arg genotype, metoprolol titrated to DBP<90 mm Hg or max 200 mg twice daily, 24-hour ambulatory BP vs baseline): −10.5 ± 7.9 % change
- 24 hr DBP response (% change) [1]: −12.6 ± 7.4 % change
- Daytime DBP response (% change) [1]: −13.6 ± 7.2 % change
- Daytime SBP response (% change) [1]: −11.6 ± 8.0 % change
- Nighttime DBP response (% change) [1]: −10.6 ± 11.6 % change
- Nighttime SBP response (% change) [1]: −7.5 ± 9.5 % change
- Daytime blood pressure response (Arg389 homozygotes compared to carriers of Gly389, not nighttime): significantly greater
- 24 hr DBP response (% change) [2]: −10.7 ± 7.8 % change
- 24 hr SBP response (% change) [2]: −10.1 ± 9.1 % change
- Daytime DBP response (% change) [2]: −10.3 ± 8.2 % change
- Daytime SBP response (% change) [2]: −10.2 ± 9.3 % change
- Nighttime DBP response (% change) [2]: −12.4 ± 9.4 % change
- Nighttime SBP response (% change) [2]: −9.3 ± 10.9 % change
- change in nighttime blood pressure (Ser49 homozygotes compared to carriers of the Gly49 allele): significantly greater
- 24 hr DBP response (% change) [3]: −3.9 ± 8.9 % change
- 24 hr SBP response (% change) [3]: −0.6 ± 12.2 % change
- Daytime DBP response (% change) [3]: −4.0 ± 10.4 % change
- Daytime SBP response (% change) [3]: −1.0 ± 12.8 % change
- Nighttime DBP response (% change) [3]: −3.1 ± 9.0 % change
- Nighttime SBP response (% change) [3]: +0.6 ± 11.8 % change
- 24 hr DBP response (% change) [4]: −4.6 ± 8.3 % change
- Daytime DBP response (% change) [4]: −3.5 ± 8.7 % change
- Daytime SBP response (% change) [4]: −2.8 ± 12.5 % change
- Nighttime DBP response (% change) [4]: −7.3 ± 9.1 % change
- Nighttime SBP response (% change) [4]: −3.9 ± 13.9 % change
- 24 hr SBP response (% change) (codon 389 Gly carriers, metoprolol titrated, ambulatory BP vs baseline): −3.3 ± 12.6 % change
- heart rate response to beta-blockade (treadmill exercise heart rate, relation to β1AR genotype): not associated with genotype
